Series [1] has as its system 3′ UTR of Crot, Cpt1a, Hadhb, Ampkα, and Irs2. As to the kind of experiment: 3′ UTR luciferase reporter assay, Crot, Cpt1a, Hadhb, Ampkα, Irs2. It is filed as cell-based. Particulars: only modest differences between miR-33a and miR-33b. The source says:
(§1) cDNA fragments corresponding to the entire 3′ UTR of carnitine O-octaniltransferase (Crot), carnitine palmitoyltransferase 1A (Cpt1a), hydroxyacyl-CoAdehydrogenase (Hadhb), AMP kinase subunit-α (Ampkα), and insulin receptor substrate 2 (Irs2), citrate synthase (Cs), 3-hydroxy-3-methylglutaryl CoA (Hmgcr), and Sirtuin 6 (Sirt6) were amplified by RT-PCR from total RNA extracted from HepG2 cells with XhoI and NotI linkers. The PCR products were directionally cloned downstream of the Renilla luciferase ORF of the ψCHECK2 vector (Promega) that also contains a constitutively expressed firefly luciferase gene, which is used to normalize transfections. Point mutations in the seed region of predicted miR-33 sites within the 3′ UTR of Crot, Cpt1a, Hadhb, Ampkα, and Sirt6 were generated using Multisite-Quickchange (Stratagene) according to the manufacturer's protocol. All constructs were confirmed by sequencing. COS-7 cells were plated into 12-well plates (Costar) and cotransfected with 1 μg indicated 3′ UTR luciferase reporter vectors and the miR-33 mimic or negative control mimic (CM) (Dharmacon) using Lipofectamine 2000 (Invitrogen). Luciferase activity was measured using the Dual-Glo Luciferase Assay System (Promega). […]
In general terms: Reporter assays use an easily measured gene product as a stand-in for the process of interest.

The subject of series [2] is Huh7 cells. As to the kind of experiment: mRNA and protein expression of miR-33 target genes in transfected Huh7 cells. It is filed as cell-based. Particulars: for CROT, CPT1a, HADHB, AMPKα, SIRT6, and IRS2 protein expression: to a similar extent for miR-33a and miR-33b. Here is the method: Total RNA was isolated using TRIzol reagent (Invitrogen) according to the manufacturer's protocol. For mRNA quantification, cDNA was synthesized using Taqman RT reagents (Applied Biosystems), following the manufacturer's protocol. Quantitative real-time PCR was performed in triplicate using iQ SYBR green Supermix (BioRad) on iCycler Real-Time Detection System (BioRad). The mRNA level was normalized to GAPDH as a house keeping gene. The primers sequences used were: […]
(§2) HepG2 and Huh7 cells were transfected with 40 nM miRIDIAN miRNA mimics (miR-33) or 60 nM miRIDIAN miRNA inhibitors (anti-miR-33) (Dharmacon) using Oligofectamine (Invitrogen). All experimental control samples were treated with an equal concentration of a nontargeting control mimic sequence (CM) or an inhibitor negative control sequence (CI) to control for nonsequence-specific effects in miRNA experiments

For series [3], the system named is Huh7 cells. As to the kind of experiment: 2-Deoxyglucose uptake. The class given is cell-based. Here is the method: Huh7 cells were transfected with miR-33b (20 nM) or negative control (Con-miR) for 48 h. Then, cells were cultured in serum-free media for 24 h, washed two times, and placed into warmed buffer for 2 h before glucose uptake studies. Insulin (100 nM) was added for 10 min. After this, […] 2-deoxyglucose (2-DOG) was added to each well (Perkin-Elmer). After 5 min, 5% unlabeled glucose was added to stop the reaction. Cells were then washed two times in 5% glucose and lysed by the addition of 0.5% SDS; 3 mL Ultima Gold scintillant (Packard) were added, samples were vortexed, and radioactivity was counted.

Series [4] has as its system Huh7 cells. As to the kind of experiment: Fatty acid β-oxidation assay ([14C]-oleate). The class given is cell-based. The procedure:
HepG2 and Huh7 cells were transfected with miR-33 (20 nM), anti-miR-33 (40 nM), or negative control (con-miR and con-inh, respectively), and the rate of fatty acid oxidation was determined. Cells were cultured in the presence of [^14C]-oleate (Perkin-Elmer)-BSA complex, and the released [^14C]-carbon dioxide was trapped for 1 h at 37° C. onto filter paper soaked in 100 mM sodium hydroxide. The rate of β-oxidation was calculated as the amount of trapped [^14C]-carbon dioxide in relative units produced per milligram of protein per hour. Experiments were performed in triplicate in p60 plates and were repeated at least three times.

A further series has as its system Sirt6 3′ UTR. As to the kind of experiment: 3′ UTR luciferase reporter assay, Sirt6. The class given is cell-based, human.
Text: as §1

In series [5] the test system is Huh7 cells. As to the kind of experiment: Triglyceride content and synthesis in Huh7 cells incubated with oleate and starved. Particulars: oleate 24 h then starved 24 h. It is filed as cell-based. Here is the method:
The accumulation of neutral lipids and lipid droplet formation was next evaluated tin Huh7 cells incubated with oleate for 24 h and then starved for the next 24 h. […] The increase in triglyceride content was independent of changes in triglyceride synthesis rates.

Series [6] relates to Huh7 cells. As to the kind of experiment: AKT and ERK phosphorylation after insulin stimulation. It is filed as cell-based. Here is the method:
Cell were lysed in ice-cold buffer containing 50 mM Tris-HCl, pH 7.5, 125 mM NaCl, 1% NP-40, 5.3 mM NaF, 1.5 mM NaP and 1 mM orthovanadate, 175 mg/ml octylglucopyranoside and 1 mg/ml of protease inhibitor cocktail (Roche) and 0.25 mg/ml AEBSF (Roche). Cell lysates were rotated at 4° C. for 1 h before the insoluble material were removed by centrifugation at 12000×g for 10 min. After normalizing for equal protein concentration, cell lysates were resuspended in SDS sample buffer before separation by SDS-PAGE. Following overnight transfer of the proteins onto nitrocellulose membranes. The membranes were probed with the indicated antibodies, and protein bands were visualized using the Odyssey Infrared Imaging System (LI-COR Biotechnology). Densitometry analysis of the gels was carried out using ImageJ software from the NIH (http://rsbweb.nih.gov/ij/).
as §2

The source of these data is US20120053227A1, “miR-33 INHIBITORS AND USES THEREOF” (New York University, priority 2010, published 2012).

In the case of “miR-33a: miR-33a transfected into Huh7 cells; human miR-33a sequence GUGCAUUGUAGUUGCAUUGCA (SEQ ID NO:32) (listed as RNA, chemistry not given here; listed as Homo sapiens)”, in series [1], the “3′ UTR activity of Crot, Cpt1a, Hadhb, Ampkα, and Irs2” value is listed as “significantly inhibited”. The “CROT, CPT1a, HADHB, AMPKα, SIRT6, and IRS2 protein expression” value with Huh7 cells [2] was “inhibited”.
Regarding “miR-33b: miR-33b transfected into Huh7 cells; human miR-33b sequence GUGCAUUGCUGUUGCAUUGC (SEQ ID NO:34) (listed as RNA, chemistry not given here; listed as Homo sapiens)”, in series [1], the “3′ UTR activity of Crot, Cpt1a, Hadhb, Ampkα, and Irs2” value is given as “significantly inhibited”. The “insulin-induced 2-deoxyglucose (2-DOG) uptake” value with Huh7 cells [3] is on record as “reduced”. Further, in the series with Huh7 cells [4], the “miR-33b expression, fold increase” value is 27 fold and the “rate of fatty acid β-oxidation” value was “markedly reduced”. In the series on Sirt6 3′ UTR, the “3′ UTR activity of Sirt6” value was “markedly repressed”. Besides, in the series with Huh7 cells [2], the “SIRT6 mRNA and protein levels” value is on record as “significantly inhibited”; the “miR-33b expression after transfection, increase” value was 32 fold; the “CROT, CPT1a, HADHB, AMPKα, SIRT6, and IRS2 protein expression” value is on record as “inhibited”. In addition, the “mRNA levels of CROT, CPT1a, HADHB, AMPKα, and IRS2” value in the series with Huh7 cells [2] (anti-miR-33b: CROT, CPT1a, AMPKα, IRS2) was “significantly inhibited”. For the same substance, the “triglycerides (TAG) accumulation” value with Huh7 cells [5] is on record as “accumulated more triglycerides”. Further, in the series with Huh7 cells [6], the “AKT and ERK phosphorylation” value is “reduced”.
